From ChEMBL document CHEMBL1201862, “PubChem BioAssay data set” (2004)
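Each compound was tested at five concentrations against cells in 96-well plates for 48 hours. GI50 marks 50% less growth.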 Activity calls are given as the source filed them. Rule as the data show it: active = GI50 up to about 1.1 µM and inactive = higher.

Key:
Test in all cases: DTP human tumour cell line panel, 48 h
UACC-257 = system: UACC-257
OVCAR-4 = system: OVCAR-4
RPMI-8226 = system: RPMI-8226
SNB-19 = system: SNB-19
HCC 2998 = system: HCC 2998
A498 = system: A498
DLD-1 = system: DLD-1
HCT-15 = system: HCT-15
SF-268 = system: SF-268
U-251 = system: U-251
EKVX = system: EKVX
Malme-3M = system: Malme-3M
HOP-62 = system: HOP-62
COLO 205 = system: COLO 205
IGROV-1 = system: IGROV-1
A549 = system: A549
SK-MEL-2 = system: SK-MEL-2
T47D = system: T47D
Hs-578T = system: Hs-578T
PC-3 = system: PC-3

Compound | GI50 (UACC-257) | GI50 (OVCAR-4) | GI50 (RPMI-8226) | GI50 (SNB-19) | GI50 (HCC 2998) | GI50 (A498) | GI50 (DLD-1) | GI50 (HCT-15) | GI50 (SF-268) | GI50 (U-251) | GI50 (EKVX) | GI50 (Malme-3M) | GI50 (HOP-62) | GI50 (COLO 205) | GI50 (IGROV-1) | GI50 (A549) | GI50 (SK-MEL-2) | GI50 (T47D) | GI50 (Hs-578T) | GI50 (PC-3)
Cc1cc(C)nc(NS(=O)(=O)c2ccc(Nc3c4ccc(Cl)cc4nc4c(C(=O)Nc5ccc(S(N)(=O)=O)cc5)cccc34)cc2)n1 | 18.8 µM (inactive) | 23.5 µM (inactive) | 21.5 µM (inactive) | 24.6 µM (inactive) | 16.6 µM (inactive) | 14.8 µM (inactive) | 13.8 µM (inactive) | 17.9 µM | 39.2 µM (inactive) | 14.4 µM (inactive) | 21 µM (inactive) | 33 µM (inactive) | 14.1 µM (inactive) | – | – | – | – | – | – | –
C/C=C1/C=CC2c3[nH]c4ccccc4c3CCN2C1 (configuration not stated) | 243 µM (inactive) | – | > 400 µM (inactive) | 187 µM (inactive) | > 400 µM (inactive) | – | > 400 µM (inactive) | > 400 µM | > 400 µM (inactive) | > 400 µM (inactive) | > 400 µM (inactive) | > 400 µM (inactive) | > 400 µM (inactive) | > 400 µM (inactive) | > 400 µM (inactive) | > 400 µM (inactive) | > 400 µM (inactive) | – | – | –
CCOC(=O)/C(C(=O)Nc1ccc(F)cc1)=C(/N)N1CCCC1 | > 100 µM (inactive) | > 100 µM (inactive) | > 100 µM (inactive) | > 100 µM (inactive) | > 100 µM (inactive) | > 100 µM (inactive) | – | < 0.01 µM | > 100 µM (inactive) | > 100 µM (inactive) | > 100 µM (inactive) | > 100 µM (inactive) | > 100 µM (inactive) | > 100 µM (inactive) | > 100 µM (inactive) | > 100 µM (inactive) | > 100 µM (inactive) | > 100 µM (inactive) | > 100 µM (inactive) | > 100 µM (inactive)
CC(=O)c1sc2c(c1OC(=O)c1ccccc1)c(=O)n(-c1ccccc1)c(=S)n2-c1ccccc1 | 4.38 µM (inactive) | 20.4 µM (inactive) | 3.12 µM (inactive) | 4.84 µM (inactive) | 17.3 µM (inactive) | 2.49 µM (inactive) | – | 18 µM | 4.97 µM (inactive) | 3.94 µM (inactive) | 15.9 µM (inactive) | 2.46 µM (inactive) | 15 µM (inactive) | 13.6 µM (inactive) | 23.3 µM (inactive) | 35.3 µM (inactive) | 2.79 µM (inactive) | 9.23 µM (inactive) | 3.74 µM (inactive) | 2.9 µM (inactive)
Cn1nc(-c2ccccc2)c2c(/C=C/c3ccc(F)cc3)onc2c1=O | – | – | > 100 µM (inactive) | – | – | – | > 100 µM (inactive) | 39.5 µM | > 100 µM (inactive) | 64 µM (inactive) | > 100 µM (inactive) | – | > 100 µM (inactive) | > 100 µM (inactive) | > 100 µM (inactive) | 13.6 µM (inactive) | – | – | – | –
O=c1[nH]/c(=C/c2ccc(OCc3ccccc3)cn2)c(=O)[nH]/c1=C/c1ccc([N+](=O)[O-])cc1 | > 100 µM (inactive) | > 100 µM (inactive) | > 100 µM (inactive) | > 64.7 µM (inactive) | > 100 µM (inactive) | 43 µM (inactive) | – | > 100 µM | > 54.2 µM (inactive) | > 65.3 µM (inactive) | > 100 µM (inactive) | > 100 µM (inactive) | 55.1 µM (inactive) | > 100 µM (inactive) | > 100 µM (inactive) | > 100 µM (inactive) | > 100 µM (inactive) | > 100 µM (inactive) | 35.8 µM (inactive) | > 100 µM (inactive)
CCC(C#N)N(Cc1ccc(CN(C(=O)c2ccccc2)C(C#N)CC)cc1)C(=O)c1ccccc1 (configuration not stated) | 16.6 µM (inactive) | 17.4 µM (inactive) | 14.5 µM (inactive) | 27 µM (inactive) | 14.6 µM (inactive) | 18.8 µM (inactive) | – | 22.2 µM | 29.4 µM (inactive) | 22.6 µM (inactive) | 22.8 µM (inactive) | 31.6 µM (inactive) | 20.9 µM (inactive) | 14.7 µM (inactive) | 18.4 µM (inactive) | 20.6 µM (inactive) | 21.7 µM (inactive) | 9.02 µM (inactive) | 21.5 µM (inactive) | 26 µM (inactive)
COC(=O)c1ccccc1C1CN=NC12Cc1cc(C)ccc1C2=O (configuration not stated) | > 100 µM (inactive) | > 100 µM (inactive) | > 100 µM (inactive) | > 100 µM (inactive) | > 100 µM (inactive) | > 100 µM (inactive) | – | > 100 µM | > 100 µM (inactive) | > 100 µM (inactive) | > 100 µM (inactive) | > 100 µM (inactive) | > 100 µM (inactive) | > 100 µM (inactive) | > 100 µM (inactive) | > 100 µM (inactive) | > 100 µM (inactive) | > 100 µM (inactive) | 49 µM (inactive) | 94.4 µM (inactive)
O=C1CCCC2=C1CC1=C(CCCC1=O)N2c1ccc(-c2ccccc2)cc1 | > 100 µM (inactive) | > 100 µM (inactive) | > 100 µM (inactive) | > 63.2 µM (inactive) | > 100 µM (inactive) | > 100 µM (inactive) | – | > 100 µM | > 63.5 µM (inactive) | > 75 µM (inactive) | > 100 µM (inactive) | > 100 µM (inactive) | > 100 µM (inactive) | > 100 µM (inactive) | > 100 µM (inactive) | > 100 µM (inactive) | > 100 µM (inactive) | > 100 µM (inactive) | 43.2 µM (inactive) | > 100 µM (inactive)
Cc1cc(S(=O)(=O)Nc2nc(N)n(-c3ccccc3)n2)c(S)cc1Cl | > 100 µM (inactive) | > 100 µM (inactive) | > 100 µM (inactive) | 43.1 µM (inactive) | > 100 µM (inactive) | > 100 µM (inactive) | – | > 100 µM | > 100 µM (inactive) | 60 µM (inactive) | > 100 µM (inactive) | > 100 µM (inactive) | > 100 µM (inactive) | > 100 µM (inactive) | > 100 µM (inactive) | > 100 µM (inactive) | > 100 µM (inactive) | > 100 µM (inactive) | 70 µM (inactive) | > 100 µM (inactive)
COc1ccc(-n2c(N)c(C#N)c(C#N)c2-c2ccco2)cc1 | > 100 µM (inactive) | 23.3 µM (inactive) | > 100 µM (inactive) | > 100 µM (inactive) | > 100 µM (inactive) | > 100 µM (inactive) | – | > 100 µM | > 100 µM (inactive) | > 100 µM (inactive) | 5.01 µM (inactive) | > 100 µM (inactive) | 72.1 µM (inactive) | > 100 µM (inactive) | 75.2 µM (inactive) | > 100 µM (inactive) | > 100 µM (inactive) | 47.9 µM (inactive) | 39.7 µM (inactive) | 46.3 µM (inactive)
COc1ccc(/C=N/c2nc3cc4sc(/N=C/c5ccc(OC)cc5)nc4cc3s2)cc1 | 70.6 µM (inactive) | 57.4 µM (inactive) | 41.8 µM (inactive) | > 100 µM (inactive) | 24.7 µM (inactive) | > 100 µM (inactive) | – | 19.5 µM | 56.8 µM (inactive) | 54.3 µM (inactive) | 21.2 µM (inactive) | > 54 µM (inactive) | > 49.2 µM (inactive) | 3.66 µM (inactive) | 57.4 µM (inactive) | 8 µM (inactive) | > 100 µM (inactive) | > 40.9 µM (inactive) | > 32.7 µM (inactive) | > 81.7 µM (inactive)
CCn1cc(/C=C/C(C)c2cn(CC)c(=O)[nH]c2=O)c(=O)[nH]c1=O (configuration not stated) | > 100 µM (inactive) | > 100 µM (inactive) | > 100 µM (inactive) | > 100 µM (inactive) | > 100 µM (inactive) | – | > 100 µM (inactive) | > 100 µM | > 100 µM (inactive) | > 100 µM (inactive) | > 100 µM (inactive) | > 100 µM (inactive) | > 100 µM (inactive) | > 100 µM (inactive) | > 100 µM (inactive) | > 100 µM (inactive) | > 100 µM (inactive) | – | – | –
C=CCNC1=C2C[C@@H](C)C[C@@H](OC)C(OC(=O)CCCN(C)C)[C@H](C)/C=C(\C)[C@@H](OC(N)=O)[C@H](OC)/C=C\C=C(/C)C(=O)NC(=CC1=O)C2=O (some centres not stated) | 12.9 µM (inactive) | 9.14 µM (inactive) | 6.49 µM (inactive) | 13.8 µM (inactive) | 4.6 µM (inactive) | 13.8 µM (inactive) | – | 6.32 µM | 12.6 µM (inactive) | 10.6 µM (inactive) | 13.1 µM (inactive) | 4.16 µM (inactive) | 9.95 µM (inactive) | 2.82 µM (inactive) | 8.95 µM (inactive) | 3.85 µM (inactive) | 12.6 µM (inactive) | 11.5 µM (inactive) | 17.5 µM (inactive) | 4.98 µM (inactive)
CSc1nc(Cl)c2c(n1)Sc1nc3cc4c(cc3n1C2O)OCCO4 (configuration not stated) | 11.1 µM (inactive) | 14.6 µM (inactive) | 0.0318 µM (active) | 0.344 µM (active) | 0.318 µM (active) | 0.708 µM (active) | – | 0.104 µM | 0.459 µM (active) | 0.223 µM (active) | 15.2 µM (inactive) | 0.847 µM (active) | 0.419 µM (active) | 0.0509 µM (active) | 0.138 µM (active) | 0.126 µM (active) | 0.923 µM (active) | 15.4 µM (inactive) | 0.295 µM (active) | 0.045 µM (active)
CC(=O)C1=C(O)/C(=C\c2ccco2)OC1=O | > 10 µM (inactive) | > 10 µM (inactive) | > 10 µM (inactive) | > 10 µM (inactive) | > 10 µM (inactive) | > 10 µM (inactive) | – | > 10 µM | > 10 µM (inactive) | > 10 µM (inactive) | > 10 µM (inactive) | > 10 µM (inactive) | > 10 µM (inactive) | > 10 µM (inactive) | > 10 µM (inactive) | > 10 µM (inactive) | > 10 µM (inactive) | > 10 µM (inactive) | > 10 µM (inactive) | > 10 µM (inactive)
